# US20180106782A1, “HIGH THROUGHPUT CARDIOTOXICITY SCREENING PLATFORM” (The Board of Trustees of the Leland Stanford Junior …, priority 2016, published 2018)
# System: μpatterned hiPSC-CMs
# Experiment: movement of LifeAct-labeled myofibrils in beating μpatterned hiPSC-CMs (cross-correlation, Ncorr)
# Type: cell-based, human
# Conditions: for aδ (temporal asynchronicity) / d (displacement) / VR (peak velocity of relaxation) / VC (peak velocity of contraction) / aθ (spatial asynchronicity): LifeAct, single cell
# Experimental: We fluorescently labeled actin with LifeAct in live hiPSC-CMs to image myofibrils and sarcomeres as described before. (Ribeiro 2015a) For this effect, we incubated hiPSC-CMs with the adenovirus rAV CAG-LifeAct-TagRFP (Ibidi; 1×10^5 IU/mL in cell-culture medium) overnight at 37° C. in a humid 5% CO2 atmosphere. We then washed cells once with PBS at 37° C. and added new medium. We observed actin labeled in sarcomeres after 2 days of adding the adenovirus to the culture medium. To induce contractile changes in hiPSC-CMs, we added drugs known to affect CM contractile machinery to the culture medium. We analyzed the mechanical output of cells after adding drugs. […] We exposed single cells to concentrations of 0.1 μM and then 1 μM of isoproterenol (Sigma, Saint Louis, Mo.) to test how the contractile activity of each cell varied after adding different amounts of isoproterenol to the medium. Omecamtiv mecarbil (Adooq Bioscience, Irvine, Calif.) was also added to the cell culture medium at 10 nM or 0.1 μM to detect different variations in the contractile response of hiPSC-CMs after adding one of these concentrations. We acquired videos of single beating hiPSC-CMs imaged with differential interference contrast microscopy at frame rates higher than 30 fps for a time between 4 and 10 s. We used MATLAB (R2014b version, Mathworks) to convert pixels of each frame to microns. Zeiss files (.czi) contained information on the pixel dimensions and were imported into MATLAB using the Bioformats package. ([…] 2010) We also confirmed the software calibration with calibration slides (Electron Microscopy Sciences). For each video of a beating single cell, we selected a region of interest (ROI) around the borders of the cell and analyzed average displacements within this ROI (FIG. 1B). For this purpose, we selected a baseline frame, within all the frames of the video, which represented the relaxed state of the cell and calculated average displacement within the ROI for the remaining frames relative to the baseline frame. As noted bellow, this procedure was automated. We then calculated displacements from microscopy videos with cross-correlation approaches: digital image correlation (DIC) and particle image velocimetry (PIV) approaches. […] Cross-correlation is done between sub-blocks of the image and the highest correlation indicates the maximum likelihood that blocks match. We tested the following cross-correlation algorithms: PIVIab, ImageJ PIV (Tseng 2012) and Ncorr. PIVIab and Ncorr were written in MATLAB, while ImageJ PIV is a plugin for ImageJ (NIH). Ncorr generally performs better, but uses more computational time. (Blaber 2015) We measured two parameters of asynchronicity of contractile movement within the ROI: spatial asynchronicity (aθ) of contractile movement and temporal asynchronicity (aδ) of contractile movement. Spatial synchronicity occurs when the different regions of the cell move along the same directions and temporal synchronicity occurs when all the regions of the cell move at the same time. To calculate aθ, we first computed the direction of movement (θ) for every movement vector of different regions i inside the ROI (FIG. 1B) at each frame as defined by The second approach performed better for analyzing sarcomere lengths in videos of LifeAct labeled beating cells. This approach was applied to different frames in a video to determine how the different properties measure with traction force microscopy or from cell movement related to sarcomere size, movement and orientation during the contractile cycle. Most of the tested approaches relied on successful skeletonization of each frame, which may not be perfect due to noise or inconsistent illumination. To quantitatively compare different skeletons from different frames in a video, we generated a master skeleton based on the skeletons generated from all frames. […]
smiles,measurement,setting,value
COC(=O)N1CCN(Cc2cccc(NC(=O)Nc3ccc(C)nc3)c2F)CC1 [omecamtiv mecarbil],acute changes in sarcomere organization and movement,"0.1 μM omecamtiv mecarbil, acute, single cell (FIG. 6B)",oscillatory contractions of sarcomeres and overlap between sarcomeres
same,chronic effects on the organization of myofibrils,"0.1 μM omecamtiv mecarbil, chronic, 2 minutes after adding (FIG. 6C)",myofibril damaging
same,acute values of dmax and br from myofibril movement,"0.1 μM omecamtiv mecarbil, single cell (FIG. 6F)",slightly increased
same,acute VC and VR from myofibril movement,"0.1 μM omecamtiv mecarbil, single cell (FIG. 6G)",no considerable acute variations
same,aδ (temporal asynchronicity),"OM 0.1 μM (FIG. 6), row 'acute', no OM: 0.05",0.89 s
same,d (displacement),"OM 0.1 μM (FIG. 6), row 'acute', no OM: 1.03",0.25 μm
same,VR (peak velocity of relaxation),"OM 0.1 μM (FIG. 6), row 'acute', no OM: 2.2",0.51 μm/s
same,VC (peak velocity of contraction),"OM 0.1 μM (FIG. 6), row 'acute', no OM: 2.25",0.54 μm/s
same,aθ (spatial asynchronicity),"OM 0.1 μM (FIG. 6), row 'acute', no OM: 36.3",40.9 °
same,aδ (temporal asynchronicity),"OM 0.1 μM (FIG. 6), row 'chronic', no OM: 0.05",0.88 s
same,d (displacement),"OM 0.1 μM (FIG. 6), row 'chronic', no OM: 1.03",0.93 μm
same,VR (peak velocity of relaxation),"OM 0.1 μM (FIG. 6), row 'chronic', no OM: 2.2",1.63 μm/s
same,VC (peak velocity of contraction),"OM 0.1 μM (FIG. 6), row 'chronic', no OM: 2.25",2.2 μm/s
same,aθ (spatial asynchronicity),"OM 0.1 μM (FIG. 6), row 'chronic', no OM: 36.3",17.1 °
CC(C)NCC(O)c1ccc(O)c(O)c1 (stereo not drawn) [isoproterenol],aδ (temporal asynchronicity),"ISO 0.1 (μM per FIG. 4), no ISO: 0.1",0.31 s
same,d (displacement),"ISO 0.1 (μM per FIG. 4), no ISO: 1.22",1.43 μm
same,VR (peak velocity of relaxation),"ISO 0.1 (μM per FIG. 4), no ISO: 2.54",3.45 μm/s
same,VC (peak velocity of contraction),"ISO 0.1 (μM per FIG. 4), no ISO: 2.63",4.78 μm/s
same,aθ (spatial asynchronicity),"ISO 0.1 (μM per FIG. 4), no ISO: 55.4",19.5 °
same,aδ (temporal asynchronicity),"ISO 1 (μM per FIG. 4), no ISO: 0.1",0.28 s
same,d (displacement),"ISO 1 (μM per FIG. 4), no ISO: 1.22",0.71 μm
same,VR (peak velocity of relaxation),"ISO 1 (μM per FIG. 4), no ISO: 2.54",2.05 μm/s
same,VC (peak velocity of contraction),"ISO 1 (μM per FIG. 4), no ISO: 2.63",2.02 μm/s
same,aθ (spatial asynchronicity),"ISO 1 (μM per FIG. 4), no ISO: 55.4",20.8 °
